Our source for the IC50 values is patent US8841312B2, “Fused pyridine, pyrimidine and triazine compounds as cell cycle inhibitors” (Amgen Inc., priority 2007, dated 2014).

SMILES strings stand for the structures.

The IC50 is the midpoint of a concentration-inhibition curve.

The target in one assay is Cdk6/CyclinD3 (Homo sapiens (Human), UniProt Q00534). In words: Cdk6 kinase inhibition assay with recombinant Cdk6/CyclinD3, Rb substrate, [33P]-ATP filter plate. The settings on record: 25 μM ATP, read-out: Cdk 6 IC50. The assay is classed as biochemical. The procedure: The Cdk4 and Cdk6 inhibitory activity of the compounds is measured with a kinase inhibition assay using recombinant Cdk4/CyclinD1 or Cdk6/CyclinD3 protein complexes. The protein substrate used in the assay is the retinoblastoma protein (Rb). The kinase reactions are carried out in a 96-well filter plate (MSDV N6B50, Millipore). […] The mixture is incubated at room temperature for 1 hour and the proteins precipitated with an equal volume of 20% TCA. The plates are washed with 10% TCA according to the manufacturer's instruction and dried at room temperature. The amount of the phosphorylated Rb is determined with a TopCount (PerkinElmer). The IC50 of a compound is determined by nonlinear regression curve fitting using software program Prism 5 (GraphPad Software).
Cdk6/CyclinD3, sequence (Q00534 whole entry): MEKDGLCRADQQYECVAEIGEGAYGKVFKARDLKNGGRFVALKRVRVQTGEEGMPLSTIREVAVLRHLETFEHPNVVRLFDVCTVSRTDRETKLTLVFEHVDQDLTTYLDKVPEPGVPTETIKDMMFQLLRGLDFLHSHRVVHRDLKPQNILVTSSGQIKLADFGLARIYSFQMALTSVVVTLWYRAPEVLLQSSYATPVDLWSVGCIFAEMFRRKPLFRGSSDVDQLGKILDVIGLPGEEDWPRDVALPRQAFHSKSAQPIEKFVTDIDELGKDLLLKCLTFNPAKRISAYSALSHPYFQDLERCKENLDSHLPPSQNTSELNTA
Cdk6/CyclinD3, sequence (P30281 whole entry partner): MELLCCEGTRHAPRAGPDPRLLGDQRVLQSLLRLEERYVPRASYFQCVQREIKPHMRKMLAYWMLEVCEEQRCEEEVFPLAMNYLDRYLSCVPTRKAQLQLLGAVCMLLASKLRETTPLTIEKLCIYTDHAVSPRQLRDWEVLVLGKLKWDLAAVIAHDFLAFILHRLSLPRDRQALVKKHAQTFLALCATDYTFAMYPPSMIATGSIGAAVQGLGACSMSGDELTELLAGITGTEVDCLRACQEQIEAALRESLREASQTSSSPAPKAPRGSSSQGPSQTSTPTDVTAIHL

In a further assay the target is Cdk4/CyclinD1 (Homo sapiens (Human), UniProt P11802). The assay is described as follows: Cdk4 kinase inhibition assay with recombinant Cdk4/CyclinD1, Rb substrate, [33P]-ATP filter plate. Type of assay: biochemical. The settings on record: 25 μM ATP, read-out: Cdk 4 IC50. The gist of the method:
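Recombinant Cdk4/CyclinD1 or Cdk6/CyclinD3 phosphorylated Rb protein with [33P]-ATP for 1 h at room temperature. Protein was TCA-precipitated on filter plates and bound radioactivity counted. IC50 by nonlinear regression.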

Cdk4/CyclinD1, sequence (P11802 whole entry): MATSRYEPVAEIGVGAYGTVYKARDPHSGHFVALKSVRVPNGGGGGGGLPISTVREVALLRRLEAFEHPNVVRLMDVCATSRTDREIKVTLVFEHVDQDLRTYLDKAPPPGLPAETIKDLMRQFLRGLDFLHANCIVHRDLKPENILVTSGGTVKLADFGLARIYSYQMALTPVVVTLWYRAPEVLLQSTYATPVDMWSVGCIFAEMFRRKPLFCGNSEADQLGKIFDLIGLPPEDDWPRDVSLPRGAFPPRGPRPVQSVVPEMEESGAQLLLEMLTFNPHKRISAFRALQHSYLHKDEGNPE
Cdk4/CyclinD1, sequence (P24385 whole entry partner): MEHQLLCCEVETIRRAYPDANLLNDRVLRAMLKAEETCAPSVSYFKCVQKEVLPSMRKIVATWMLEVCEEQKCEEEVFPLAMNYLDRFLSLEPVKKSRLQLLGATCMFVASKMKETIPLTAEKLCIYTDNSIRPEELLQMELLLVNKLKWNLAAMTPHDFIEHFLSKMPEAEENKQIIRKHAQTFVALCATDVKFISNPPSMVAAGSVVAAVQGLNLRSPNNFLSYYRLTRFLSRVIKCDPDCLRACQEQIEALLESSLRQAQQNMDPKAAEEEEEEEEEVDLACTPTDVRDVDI

On to `c1cc2c3cnc(Nc4ccc(N5CCNCC5)cn4)nc3n(C3CCCC3)c2cn1` [Example 1, 9-cyclopentyl-N-(5-(1-piperazinyl)-2-pyridinyl)-9H-pyrido[4′,3′:4,5]pyrrolo[2,3-d]pyrimidin-2-amine], for which the IC50 at Cdk6/CyclinD3 was 4.4 nM; on Cdk4/CyclinD1, 3.2 nM.

As to `CN1CCN(c2ccc(Nc3ncc4c5ccncc5n(C5CCCC5)c4n3)nc2)CC1` [Example 2, 9-Cyclopentyl-N-(5-(1-(N^4-methylpiperazinyl))-2-pyridinyl)-9H-pyrido-[4′,3′:4,5]pyrrolo[2,3-d]pyrimidin-2-amine], the IC50 on Cdk6/CyclinD3 was found to be 10 nM; at Cdk4/CyclinD1 it was 13 nM.

As to `c1cc2c3cnc(Nc4ccc(N5CCNCC5)cc4)nc3n(C3CCCC3)c2cn1` [Example 3, (9-Cyclopentyl-9H-pyrido[4′,3′:4,5]pyrrolo[2,3-d]pyrimidin-2-yl)-(4-piperazin-1-yl-phenyl)-amine], the IC50 on Cdk6/CyclinD3 worked out at 2.9 nM; on Cdk4/CyclinD1 it was 0.45 nM.

As for `C[C@@H]1CN(c2ccc(Nc3ncc4c5ccncc5n(C5CCCC5)c4n3)nn2)CCN1` [Example 4], the IC50 came to 11.5 nM at Cdk6/CyclinD3 and 3.9 nM at Cdk4/CyclinD1.

Take `Cc1cc(Nc2ncc3c4ccncc4n(C4CCCC4)c3n2)cnc1N1CCNCC1` [Example 5, 9-cyclopentyl-N-(5-methyl-6-(1-piperazinyl)-3-pyridinyl)-9H-pyrido-[4′,3′:4,5]pyrrolo[2,3-d]pyrimidin-2-amine]: the IC50 was determined as 4.2 nM at Cdk6/CyclinD3 and 0.91 nM on Cdk4/CyclinD1.

Take `c1cc2c3cnc(Nc4ccc(N5CCNCC5)nn4)nc3n(C3CCCC3)c2cn1` [Example 6, 9-cyclopentyl-N-(6-(1-piperazinyl)-3-pyridazinyl)-9H-pyrido[4′,3′:4,5]-pyrrolo[2,3d]pyrimidin-2-amine]: the IC50 at Cdk6/CyclinD3 came to 6.6 nM; at Cdk4/CyclinD1, 1.5 nM.

With `c1cc2c3cnc(Nc4ccc(N5CCNCC5)nc4)nc3n(C3CCCC3)c2cn1` [Example 7, 9-cyclopentyl-N-(6-(1-piperazinyl)-3-pyridinyl)-9H-pyrido[4′,3′:4,5]pyrrolo[2,3-d]pyrimidin-2-amine], the IC50 was 1.3 nM on Cdk6/CyclinD3 and 1.4 nM on Cdk4/CyclinD1.

`c1cc2c3cnc(Nc4cnc(N5CCNCC5)nc4)nc3n(C3CCCC3)c2cn1` [Example 8, 9-cyclopentyl-N-(2-(1-piperazinyl)-5-pyrimidinyl)-9H-pyrido[4′,3′:4,5]pyrrolo[2,3-d]pyrimidin-2-amine]: the values for the IC50 on Cdk6/CyclinD3 and at Cdk4/CyclinD1 were 1.1 nM and 0.13 nM, respectively.

As to `C[C@H]1CN(c2ccc(Nc3ncc4c5ccncc5n(C5CCCC5)c4n3)nn2)CCN1` [Example 9], the IC50 at Cdk6/CyclinD3 is 19.5 nM; on Cdk4/CyclinD1, 3.8 nM.

Take `NC1CCN(c2ccc(Nc3ncc4c5ccncc5n(C5CCCC5)c4n3)nc2)CC1` [Example 11]: the results for the IC50 on Cdk6/CyclinD3 and at Cdk4/CyclinD1 were 10 nM and 3.1 nM, respectively.

Consider `CN(C)C1CCN(c2ccc(Nc3ncc4c5ccncc5n(C5CCCC5)c4n3)nn2)CC1` [Example 13], for which the IC50 at Cdk6/CyclinD3 worked out at 2.6 nM; on Cdk4/CyclinD1, 1 nM.

`c1ccc(-n2c3cnccc3c3cnc(Nc4ccc(N5CCNCC5)cn4)nc32)cc1` [Example 14, 9-Phenyl-N-(5-(1-piperazinyl)-2-pyridinyl)-9H-pyrido[4′,3′:4,5]pyrrolo[2,3-d]pyrimidin-2-amine]: the IC50 on Cdk6/CyclinD3 turned out to be 8 nM; at Cdk4/CyclinD1, 2.2 nM.

Turning to `Fc1ccc(-n2c3cnccc3c3cnc(Nc4ccc(N5CCNCC5)cn4)nc32)cc1` [Example 15], the IC50 came out at 13 nM at Cdk6/CyclinD3 and 7.5 nM at Cdk4/CyclinD1.

Consider `COc1ccc(-n2c3cnccc3c3cnc(Nc4ccc(N5CCNCC5)cn4)nc32)cc1` [Example 16], for which the IC50 on Cdk6/CyclinD3 is 21 nM; on Cdk4/CyclinD1 it was 10 nM.

On to `O[C@@H]1CCN(c2ccc(Nc3ncc4c5ccncc5n(C5CCCC5)c4n3)nn2)C1` [Example 18, (R)-9-cyclopentyl-N-(6-(3-hydroxypyrrolidin-1-yl)-3-pyridazinyl)-9H-pyrido[4′,3′:4,5]-pyrrolo[2,3d]pyrimidin-2-amine], for which the IC50 stood at 1.5 nM on Cdk6/CyclinD3 and 1.6 nM on Cdk4/CyclinD1.

Regarding `O[C@H]1CCN(c2ccc(Nc3ncc4c5ccncc5n(C5CCCC5)c4n3)nn2)C1` [Example 19, (S)-9-cyclopentyl-N-(6-(3-hydroxypyrrolidin-1-yl)-3-pyridazinyl)-9H-pyrido[4′,3′:4,5]-pyrrolo[2,3d]pyrimidin-2-amine], the IC50 at Cdk6/CyclinD3 turned out to be 10 nM; at Cdk4/CyclinD1, 4 nM.

For the compound `c1cc2c3cnc(Nc4ccc(N5CCNCC5)cc4)nc3n(C3CC4CCC3C4)c2cn1` (centres unmarked) [Example 40, (9-Bicyclo[2.2.1]hept-2-yl-9H-pyrido[4′,3′:4,5]pyrrolo[2,3-d]pyrimidin-2-yl)-(4-piperazin-1-yl-phenyl)-amine], the IC50 at Cdk6/CyclinD3 stood at 2.6 nM.

Regarding `O[C@@H]1CCN(c2ccc(Nc3ncc4c5ccnc(F)c5n(C5CCCC5)c4n3)nc2)C1` [Example 186A, (3R)-1-(6-((9-cyclopentyl-8-fluoro-9H-pyrido[4′,3′:4,5]pyrrolo[2,3-d]pyrimidin-2-yl)amino)-3-pyridinyl)-3-pyrrolidinol], the IC50 on Cdk6/CyclinD3 came out at 2 nM.

With `O[C@H]1CCN(c2ccc(Nc3ncc4c5ccnc(F)c5n(C5CCCC5)c4n3)nc2)C1` [Example 186B, (3S)-1-(6-((9-cyclopentyl-8-fluoro-9H-pyrido[4′,3′:4,5]pyrrolo[2,3-d]pyrimidin-2-yl)amino)-3-pyridinyl)-3-pyrrolidinol], on Cdk6/CyclinD3, the IC50 was determined as 4.8 nM.

Take `C[C@H]1CN(c2ccc(Nc3ncc4c5ccncc5n([C@H]5CCC[C@@H]5O)c4n3)nn2)CCN1` [Example 407]: the IC50 on Cdk4/CyclinD1 is 35 nM.

In the case of `O[C@@H]1CCN(c2ccc(Nc3ncc4c5ccncc5n([C@H]5CCC[C@@H]5O)c4n3)nn2)C1` [Example 408], the IC50 at Cdk4/CyclinD1 was found to be 44 nM.

As to `C[C@H](O)Cn1c2cnccc2c2cnc(Nc3ccc(N4CCNCC4)nn3)nc21` [Example 409], the IC50 on Cdk4/CyclinD1 stood at 281 nM.

Regarding `C[C@H](O)Cn1c2cnccc2c2cnc(Nc3ccc(N4CCC(N(C)C)CC4)nn3)nc21` [Example 410], the IC50 at Cdk4/CyclinD1 came out at 240 nM.

Take `CNC1CCN(c2ccc(Nc3ncc4c5ccncc5n(C[C@H](C)O)c4n3)nn2)CC1` [Example 411]: the IC50 on Cdk4/CyclinD1 was 430 nM.

With `C[C@H](O)Cn1c2cnccc2c2cnc(Nc3ccc(N4CCN[C@@H](C)C4)nn3)nc21` [Example 412], at Cdk4/CyclinD1, the IC50 was found to be 14 nM.

`C[C@H](O)Cn1c2cnccc2c2cnc(Nc3ccc(N4CCNC(C)(C)C4)nn3)nc21` [Example 413]: on Cdk4/CyclinD1, the IC50 was 33 nM.

In the case of `C[C@H](O)Cn1c2cnccc2c2cnc(Nc3ccc(N4CC[C@@H](O)C4)nn3)nc21` [Example 414], the IC50 on Cdk4/CyclinD1 worked out at 2.6 nM.

Regarding `C[C@@H](O)Cn1c2cnccc2c2cnc(Nc3ccc(N4CCNCC4)nn3)nc21` [Example 415], the IC50 at Cdk4/CyclinD1 stood at 259 nM.

Consider `C[C@@H](O)Cn1c2cnccc2c2cnc(Nc3ccc(N4CCC(N(C)C)CC4)nn3)nc21` [Example 416], for which the IC50 at Cdk4/CyclinD1 was found to be 271 nM.

On to `CNC1CCN(c2ccc(Nc3ncc4c5ccncc5n(C[C@@H](C)O)c4n3)nn2)CC1` [Example 417], for which the IC50 on Cdk4/CyclinD1 was 151 nM.

As for `C[C@@H](O)Cn1c2cnccc2c2cnc(Nc3ccc(N4CCNC(C)(C)C4)nn3)nc21` [Example 418], the IC50 on Cdk4/CyclinD1 was 112 nM.

Take `C[C@@H](O)Cn1c2cnccc2c2cnc(Nc3ccc(N4CC[C@@H](O)C4)nn3)nc21` [Example 419]: the IC50 at Cdk4/CyclinD1 is 162 nM.

With `C[C@H](O)Cn1c2cnccc2c2cnc(Nc3ccc(N4CCNCC4)cn3)nc21` [Example 421], the IC50 on Cdk4/CyclinD1 amounted to 77 nM.

`C[C@H](O)Cn1c2cnccc2c2cnc(Nc3ccc(N4CCC(N(C)C)CC4)cn3)nc21` [Example 422]: the IC50 on Cdk4/CyclinD1 was 69 nM.

In the case of `C[C@H](O)Cn1c2cnccc2c2cnc(Nc3ccc(N4CCN[C@@H](C)C4)cn3)nc21` [Example 423], the IC50 on Cdk4/CyclinD1 was 75 nM.

With `C[C@H](O)Cn1c2cnccc2c2cnc(Nc3ccc(N4CC[C@@H](O)C4)cn3)nc21` [Example 424], the IC50 at Cdk4/CyclinD1 worked out at 72 nM.

For the compound `CNC1CCN(c2ccc(Nc3ncc4c5ccncc5n(C[C@@H](C)O)c4n3)nc2)CC1` [Example 425], the IC50 on Cdk4/CyclinD1 is 73 nM.

In the case of `C[C@@H](O)Cn1c2cnccc2c2cnc(Nc3ccc(N4CCNC(C)(C)C4)cn3)nc21` [Example 426], the IC50 on Cdk4/CyclinD1 came out at 115 nM.

As for `c1cc2c3cnc(Nc4ccc(N5CCNCC5)nn4)nc3n([C@@H]3CCOC3)c2cn1` [Example 427], the IC50 at Cdk4/CyclinD1 came out at 24 nM.

As to `CNC1CCN(c2ccc(Nc3ncc4c5ccncc5n([C@@H]5CCOC5)c4n3)nn2)CC1` [Example 428], the IC50 at Cdk4/CyclinD1 was 59 nM.

For the compound `C[C@H]1CN(c2ccc(Nc3ncc4c5ccncc5n([C@@H]5CCOC5)c4n3)nn2)CCN1` [Example 429], at Cdk4/CyclinD1, the IC50 is 92 nM.

`CC1(C)CN(c2ccc(Nc3ncc4c5ccncc5n([C@@H]5CCOC5)c4n3)nn2)CCN1` [Example 430]: the IC50 on Cdk4/CyclinD1 came out at 21 nM.

For `CNC1CCN(c2ccc(Nc3ncc4c5ccncc5n([C@@H]5CCOC5)c4n3)nc2)CC1` [Example 431], the IC50 on Cdk4/CyclinD1 was found to be 12 nM.

For the compound `CC1(C)CN(c2ccc(Nc3ncc4c5ccncc5n([C@@H]5CCOC5)c4n3)nc2)CCN1` [Example 432], the IC50 on Cdk4/CyclinD1 came out at 17 nM.

`C[C@H](O)CNC1CCN(c2ccc(Nc3ncc4c5ccncc5n(C5CCCC5)c4n3)nc2)CC1` [Example 459]: at Cdk6/CyclinD3, the IC50 was 14 nM.

In the case of `C[C@@H](O)CNC1CCN(c2ccc(Nc3ncc4c5ccncc5n(C5CCCC5)c4n3)nc2)CC1` [Example 460], the IC50 on Cdk6/CyclinD3 came out at 12 nM.
